Results on four molecules are retold here after patent publication US20090087376A1, “Heterocyclic Dye Compounds For In Vivo Imaging And Diagnosis Of Alzheimer's Disease” (The General Hospital Corporation, priority 2004, published 2009).

A short description of one series: Enter CNS (BBB). As to conditions: in vivo.
A further series deals with β-amyloid plaques. Nature of the series: Plaque specificity of dye compounds. In kind it is binding.
A short description of series [1]: Near-IR spectra of dye compounds. In kind it is physicochemical.

The structures appear in SMILES notation.

Take `CC1(C)C(/C=C/c2ccc(-c3ccc(-c4ccc(O)cc4)s3)s2)=[N+](CCCS(=O)(=O)[O-])c2ccccc21` [NIAD1]: in the series “Enter CNS (BBB)”, the “Enter CNS (BBB)” value was “Yes/No”. Moreover, the Plaque specificity result in the series with β-amyloid plaques is “Yes”. In series [1], the Near-IR spectra result is reported as “Yes”.

Consider `C[N+]1=C(/C=C/c2ccc(-c3ccc(-c4ccc(O)cc4)s3)s2)C(C)(C)c2ccccc21.[Cl-]` [NIAD3], for which, in “Enter CNS (BBB)”, the “Enter CNS (BBB)” value was “No”. In addition, the Plaque specificity entry in the series with β-amyloid plaques is recorded as “Yes”. In addition, the Near-IR spectra result in series [1] is “Yes”.

As for `CN(C)c1ccc(-c2sc(-c3ccc(C=C(C#N)C#N)s3)c3ccccc23)cc1` [NIAD6], in the series “Enter CNS (BBB)”, the “Enter CNS (BBB)” value is on record as “No”. The Plaque specificity entry in the series with β-amyloid plaques is “Yes”. Besides, the Near-IR spectra result in series [1] is on record as “Yes”.

Take `CN(C)c1ccc(-c2ccc(-c3ccc(C=C4C(=C(C#N)C#N)c5ccccc5C4=C(C#N)C#N)s3)s2)cc1` [NIAD7]: the “Enter CNS (BBB)” value in the series “Enter CNS (BBB)” is on record as “Yes”. In the series on β-amyloid plaques, the Plaque specificity entry is on record as “Yes”. In addition, the Near-IR spectra entry in series [1] is “No”.
